Where a name gives a salt, the structure may show the parent alone.
How the values were obtained:
[1] = rat; cited from earlier work
[2] = test system: human osteoblasts; test: Cellular proliferation test; type: cell-based; conditions: for cells proliferation (number of cells, colorimetric test at 540 nm): human osteoblasts, medium without FCS with BSA, increasing doses, 5 days, FIG. 1 / FIG. 2
Procedure: (§1) The differentiated human osteoblasts were prepared starting from bone fragments obtained during surgical operation following the procedure described in Calcif. Tissue Int. 62: 362–365, 1998; and in Calcif. Tissue Int. 37: 453–460, 1985.
(§2) In short, bone fragments were undertaken to enzymatic digestion with collagenase (1 mg/ml) diluted in phosphate buffer in order to remove fibroblasts, haematic endothelial cells or bone marrow cells, if any.
(§3) The fragments so cleaned were maintained in culture in presence of a medium containing 20% of foetal calf serum (FCS) to obtain osteoblasts population for explant.
(§4) The cells so obtained were characterised to verify their osteoblastic phenotype then used for the experiments.
The cellular proliferation test was done growing the cells in 96 well plates, in medium without FCS, and with bovine serum albumin (BSA).
The cells were exposed to increasing doses of L-carnitine fumarate and isovaleryl L-carnitine fumarate. The positive control group was constituted by cells growing in presence of FCS (15%).
Every 24 ore, for 5 days, samples from plates in culture were fixed with a solution of paraformaldehyde at 3%, the cells were stained with crystal-violet at 0.5%, washed to eliminate the excess of stain and a solution of sodium citrate 0.1 M in ethanol was added. The number of the cells contained in the wells was evaluated by colorimetric test at 540 nm.

[3] = test system: osteocalcine; conditions: mice, during formation of the bone matrix; cited from earlier work
[4] = test system: human osteoblasts; test: Production of collagen by incorporation of 3H-proline; type: cell-based; conditions: FIG. 3
Procedure: as §1, §2, §3, §4
The collagen production represents a method for the evaluation of the osteoblast activity.
This production was evaluated on semiconfluent cells grown on 24 wells plates, in medium without serum (FCS) containing 1 μCi/well of ^3H-proline, both in the wells of the control and in the wells where were present the tested compounds. After 4 hours of incubation in presence of the tracer the cells were lysed and undertaken to an extraction procedure (Journal of Bone and Mineral Research, 2000; Vol. 15(2); 188–97). […] The radioactivity of the cells, as index of the cells collagen synthesis, was evaluated with a beta-counter.

Compound: C[N+](C)(C)CC(O)CC(=O)[O-] (racemic) [D,L-carnitine]
- bone calcium [1]: increases the bone calcium

Compound: C[N+](C)(C)C[C@H](O)CC(=O)[O-].O=C(O)/C=C/C(=O)O [L-carnitine fumarate, reference compound]
- cells proliferation (number of cells, colorimetric test at 540 nm) [2]: cells proliferation induced by L-carnitine fumarate

Compound: C[N+](C)(C)C[C@H](O)CC(=O)[O-] [L-carnitine]
- production of osteocalcine (index of better calcification) [3]: increase the production of osteocalcine

Compound: CC(=O)O[C@H](CC(=O)[O-])C[N+](C)(C)C [acetyl L-carnitine]
- production of osteocalcine (index of better calcification) [3]: reduces the production of this marker

Compound: CC(C)CC(=O)O[C@H](CC(=O)[O-])C[N+](C)(C)C [isovaleryl L-carnitine fumarate]
- cells proliferation compared with L-carnitine fumarate ([2]; FIG. 1 versus FIG. 2): induces cells proliferation (FIG. 1) in a more potent way
- cellular proliferation activity at 10^-3 M compared with L-carnitine fumarate at 10^-2 M ([2]; dose 10 times lower than that of L-carnitine fumarate): has the same cellular proliferation activity
- cells proliferation (number of cells, colorimetric test at 540 nm) [2]: promotes cells proliferation
- production of collagen respect to the same doses of L-carnitine fumarate ([4]; Student t test): favouring activity for the production of collagen in a significant way
- production of collagen (3H-proline incorporation) respect to the control sample ([4]; semiconfluent cells, medium without serum, 4 hours of incubation with tracer): increases the production of collagen in an higher way respect to the control sample
